# From ChEMBL document CHEMBL3877275, “Dihydroorotate dehydrogenase: A drug target for the development of antimalarials” (Eur J Med Chem, 2017)
# Columns and labels:
# [1] = Inhibition of Plasmodium falciparum DHODH expressed in Escherichia coli using L-dihydroorotate as substrate by DCIP-based spectrophotometric method
# [2] = Inhibition of Plasmodium falciparum DHODH using L-dihydroorotate as substrate after 20 mins by DCIP-based assay
# Plasmodium falciparum = experiment: Antiparasitic activity against Plasmodium falciparum NF54 infected in human erythrocytes by [3H]-hypoxanthine incorporation assay; type: functional, cell-based
# [3] = Inhibition of Plasmodium falciparum DHODH
# [4] = Selectivity ratio of IC50 for human DHODH to IC50 for Plasmodium falciparum DHODH
SMILES,IC50 [1] [nM],IC50 (Plasmodium falciparum) [µM],also measured
COc1ccc2c(c1)ncn2-c1ccc(C(=O)NC2CC2)s1,–,–,IC50 [2]: 22 nM
Cc1cc(Nc2ccc(C(F)(F)F)cc2)n2nc(C(F)(F)F)nc2n1,35,–,–
N#Cc1cccc2c1ncn2-c1ccc(C(=O)NC2CC2)s1,–,–,IC50 [2]: 50 nM
CCOC(=O)C(=CNc1cccc(N(C)C)c1)C(=O)OCC,–,5 to 12,–
Cc1cc(Nc2cc(F)c(C(F)(F)F)c(F)c2)n2nc(C(F)(F)F)nc2n1,22,–,–
Cc1cc(Nc2ccc(C(F)(F)F)c(F)c2)n2nc(C(F)(F)F)nc2n1,35,–,–
O=C(Nc1ccc(Cl)cc1Cl)c1ccc2ccccc2c1,–,5 to 12,IC50 [3]: 20 to 800 nM; Ratio IC50 [4]: 70 to 12500
Cc1c(C(=O)Nc2cc(Cl)cc(Cl)c2)cccc1[N+](=O)[O-],–,5 to 12,IC50 [3]: 20 to 800 nM; Ratio IC50 [4]: 70 to 12500
COc1cccc2c1ncn2-c1ccc(C(=O)NC2CC2)s1,–,–,IC50 [2]: 44 nM

# Continued, in another order:
IC50 [1] [nM],IC50 (Plasmodium falciparum) [µM],SMILES,also measured
770,–,Cc1cc(Nc2ccc(C(F)(F)F)cc2)n2ccnc2n1,–
12,–,Cc1cc(Nc2cc(F)c(C(F)(F)F)c(F)c2)n2nc(C(C)(F)F)nc2n1,–
–,5 to 12,COc1ccccc1NC(=O)Nc1cccc2ccccc12,IC50 [3]: 20 to 800 nM; Ratio IC50 [4]: 70 to 12500
